In patent US9522907B2, “Anticancer agent and process for the preparation thereof” (COUNCIL OF SCIENTIFIC & INDUSTRIAL RESEARCH, priority 2014, dated 2016):

Experiments:
Breast cancer cell lines = assay: cells; type: cell-based; conditions: for CC50: read-out: Log10 LC50 mean graph midpoint (MG_MID) (converted)
From the text: (§1) The mean graph midpoint values of Log10 GI50 as well as Log10 LC50 for the compounds 2i, 5i and Hoechst 33258 (NSC-322921) is listed in Table 2.
(§2) Each cancer type represents the average of six to eight different cancer cell lines.

CNS cancer cell lines = assay: cells; type: cell-based; conditions: for CC50: read-out: Log10 LC50 mean graph midpoint (MG_MID) (converted)
From the text: as §1, §2

Colon cancer cell lines = assay: cells; type: cell-based; conditions: for LC50: read-out: Log10 LC50 mean graph midpoint (MG_MID) (converted)
From the text: as §1, §2

[1] = tested on: Leukemia cancer cell lines; assay: cells; type: cell-based; conditions: for LC50 (50% lethal concentration, NCI mean graph midpoint): read-out: Log10 LC50 mean graph midpoint (MG_MID) (converted)
From the text: as §1, §2

[2] = tested on: Melanoma cancer cell lines; assay: cells; type: cell-based; conditions: for LC50: read-out: Log10 LC50 mean graph midpoint (MG_MID) (converted)
From the text: as §1, §2

[3] = tested on: Non-small-cell lung cancer cell lines; assay: cells; type: cell-based; conditions: for LC50 (lethal concentration 50%): read-out: Log10 LC50 mean graph midpoint (MG_MID) (converted)
From the text: as §1, §2

[4] = tested on: Ovarian cancer cell lines; assay: cells; type: cell-based; conditions: for CC50: read-out: Log10 LC50 mean graph midpoint (MG_MID) (converted)
From the text: as §1, §2

[5] = tested on: Prostate cancer cell lines; assay: cells; type: cell-based; conditions: for CC50: read-out: Log10 LC50 mean graph midpoint (MG_MID) (converted)
From the text: as §1, §2

Renal cancer cell lines = assay: cells; type: cell-based; conditions: for CC50: read-out: Log10 LC50 mean graph midpoint (MG_MID) (converted)
From the text: as §1, §2

SR (leukemia cell line) = assay: NCI in vitro cytotoxicity, SR; conditions: Homo sapiens
From the text: (§3) For these compounds results are expressed as growth inhibition (GI50) values as per NCI protocol.

PC-3 = assay: NCI in vitro cytotoxicity, PC-3; conditions: Homo sapiens
From the text: as §3

786-0 = assay: NCI in vitro cytotoxicity, 786-0; conditions: Homo sapiens
From the text: as §3

MOLT-4 = assay: NCI in vitro cytotoxicity, MOLT-4; conditions: Homo sapiens
From the text: as §3

UO-31 = assay: NCI in vitro cytotoxicity, UO-31; conditions: Homo sapiens
From the text: as §3

MCF-7 = assay: NCI in vitro cytotoxicity, MCF-7; conditions: Homo sapiens, MCF7
From the text: as §3

T-47D = assay: NCI in vitro cytotoxicity, T-47D; conditions: Homo sapiens, T47D
From the text: as §3

SNB-19 = assay: NCI in vitro cytotoxicity, SNB-19; conditions: Homo sapiens
From the text: as §3

IGROV 1 = assay: NCI in vitro cytotoxicity, IGROV 1; conditions: Homo sapiens
From the text: as §3

COLO 205 = assay: NCI in vitro cytotoxicity, COLO 205; conditions: Homo sapiens
From the text: as §3

HCC-2998 = assay: NCI in vitro cytotoxicity, HCC-2998; conditions: Homo sapiens
From the text: as §3

MALME-3M = assay: NCI in vitro cytotoxicity, MALME-3M; conditions: Homo sapiens
From the text: as §3

NCI-H322M = assay: NCI in vitro cytotoxicity, NCI-H322M; conditions: Homo sapiens
From the text: as §3

MDA-MB-468 = assay: NCI in vitro cytotoxicity, MDA-MB-468; conditions: Homo sapiens
From the text: as §3

MDA-MB-231/ATCC = assay: NCI in vitro cytotoxicity, MDA-MB-231/ATCC; conditions: Homo sapiens
From the text: as §3

K-562 = assay: NCI in vitro cytotoxicity, K-562; conditions: Homo sapiens, K562
From the text: as §3

[6] = tested on: BT-549 (breast cancer cell line); assay: NCI in vitro cytotoxicity, BT-549; conditions: Homo sapiens
From the text: as §3

| Structure (SMILES) | CC50 (Breast cancer cell lines; Homo sapiens) [µM] | CC50 (CNS cancer cell lines; Homo sapiens) [µM] | LC50 (Colon cancer cell lines; Homo sapiens) [µM] | LC50 (50% lethal concentration, NCI mean graph midpoint) ([1]; Homo sapiens) [µM] | LC50 ([2]; Homo sapiens) [µM] | LC50 (lethal concentration 50%) ([3]; Homo sapiens) [µM] | CC50 ([4]; Homo sapiens) [µM] | CC50 ([5]; Homo sapiens) [µM] | CC50 (Renal cancer cell lines; Homo sapiens) [µM] | GI50 (SR (leukemia cell line)) [µM] | GI50 (PC-3) [µM] | GI50 (MOLT-4) [µM] | GI50 (UO-31) [µM] | GI50 (MCF-7) [µM] | GI50 (T-47D) [µM] | GI50 (SNB-19) [µM] | GI50 (IGROV 1) [µM] | GI50 (HCC-2998) [µM] | GI50 (MALME-3M) [µM] | GI50 (MDA-MB-468) [µM] | also measured |
| --- | --- | --- | --- | --- | --- | --- | --- | --- | --- | --- | --- | --- | --- | --- | --- | --- | --- | --- | --- | --- | --- |
| COc1cc(-c2nc(-c3ccc(-c4nc5cc(F)ccc5[nH]4)cc3)no2)cc(OC)c1OC [2i, 3-(4-(5-Fluoro-1H-benzo[d]imidazol-2-yl)phenyl)-5-(3,4,5-trimethoxyphenyl)-1,2,4-oxadiazole] | 93.3 | 91.2 | 75.9 | ≥ 100 | 35.5 | 75.9 | 87.1 | ≥ 100 | 79.4 | 2.98 | 2.33 | 1.99 | 2.51 | 2.88 | 2.72 | 5.62 | 3.81 | 6.13 | 2.32 | 3.01 | Log10 GI50 mean graph midpoint (MG_MID) (Breast cancer cell lines; Breast, average of cell lines of the cancer type): −5.55; Log10 GI50 mean graph midpoint (MG_MID) (CNS cancer cell lines; CNS, average of cell lines of the cancer type): −5.39; Log10 GI50 mean graph midpoint (MG_MID) (Colon cancer cell lines; Colon, average of cell lines of the cancer type): −5.44; Log10 GI50 mean graph midpoint (MG_MID) ([1]; Leukemia, average of cell lines of the cancer type): −5.64; Log10 GI50 mean graph midpoint (MG_MID) ([2]; Melanoma, average of cell lines of the cancer type): −5.55; Log10 GI50 mean graph midpoint (MG_MID) ([3]; Non-small-cell lung, average of cell lines of the cancer type): −5.47; Log10 GI50 mean graph midpoint (MG_MID) ([4]; Ovarian, average of cell lines of the cancer type): −5.49; Log10 GI50 mean graph midpoint (MG_MID) ([5]; Prostate, average of cell lines of the cancer type): −5.51; Log10 GI50 mean graph midpoint (MG_MID) (Renal cancer cell lines; Renal, average of cell lines of the cancer type): −5.45; GI50 (786-0): 3.61 µM; GI50 (COLO 205): 4.77 µM; GI50 (NCI-H322M): 1.3 µM; GI50 (MDA-MB-231/ATCC): 2.39 µM |
| COc1ccc2[nH]c(-c3ccc(-c4noc(-c5cc(OC)c(OC)c(OC)c5)n4)cc3)nc2c1 [5i, 3-(4-(5-Methoxy-1H-benzo[d]imidazol-2-yl)phenyl)-5-(3,4,5-trimethoxyphenyl)-1,2,4-oxadiazole] | 79.4 | 44.7 | 85.1 | 100 | 83.2 | 79.4 | 67.6 | 91.2 | 74.1 | 0.71 | 240 | 5.29 | 1.89 | 1.08 | 14.7 | 1.27 | 26.3 | 35.5 | 1.67 | 6.54 | GI50 (Breast cancer cell lines; Homo sapiens, Breast, average of cell lines of the cancer type, read-out: Log10 GI50 mean graph midpoint (MG_MID) (converted)): 3.39 µM; GI50 (CNS cancer cell lines; Homo sapiens, CNS, average of cell lines of the cancer type, read-out: Log10 GI50 mean graph midpoint (MG_MID) (converted)): 6.31 µM; GI50 (Colon cancer cell lines; Homo sapiens, Colon, average of cell lines of the cancer type, read-out: Log10 GI50 mean graph midpoint (MG_MID) (converted)): 4.79 µM; GI50 ([1]; Homo sapiens, Leukemia, average of cell lines of the cancer type, read-out: Log10 GI50 mean graph midpoint (MG_MID) (converted)): 3.31 µM; GI50 ([2]; Homo sapiens, Melanoma, average of cell lines of the cancer type, read-out: Log10 GI50 mean graph midpoint (MG_MID) (converted)): 7.59 µM; GI50 ([3]; Homo sapiens, Non-small-cell lung, average of cell lines of the cancer type, read-out: Log10 GI50 mean graph midpoint (MG_MID) (converted)): 8.71 µM; GI50 ([4]; Homo sapiens, Ovarian, average of cell lines of the cancer type, read-out: Log10 GI50 mean graph midpoint (MG_MID) (converted)): 7.59 µM; GI50 ([5]; Homo sapiens, Prostate, average of cell lines of the cancer type, read-out: Log10 GI50 mean graph midpoint (MG_MID) (converted)): 14.1 µM; GI50 (Renal cancer cell lines; Homo sapiens, Renal, average of cell lines of the cancer type, read-out: Log10 GI50 mean graph midpoint (MG_MID) (converted)): 14.5 µM; GI50 (K-562): 1.2 µM; GI50 [6]: 0.52 µM; GI50 (MDA-MB-231/ATCC): 2.65 µM |
